In paper PMC10933438, “Inhibition of urease-mediated ammonia production by 2-octynohydroxamic acid in hepatic encephalopathy” (Nature Communications, 2024):

Tests used:
Jack bean urease [1] = target: T1, Jack bean urease (Canavalia ensiformis, UniProt P07374); assay: cell-free pH-based (phenol red) urease activity assay; delay of half-maximal absorbance at […] inhibitor (ΔT50); format: biochemical
Jack bean urease [2] = target: T1, Jack bean urease; assay: cell-free pH-based (phenol red) urease activity assay; ΔT50 at […] inhibitor; format: biochemical

T1 sequence (P07374 whole entry, looked up): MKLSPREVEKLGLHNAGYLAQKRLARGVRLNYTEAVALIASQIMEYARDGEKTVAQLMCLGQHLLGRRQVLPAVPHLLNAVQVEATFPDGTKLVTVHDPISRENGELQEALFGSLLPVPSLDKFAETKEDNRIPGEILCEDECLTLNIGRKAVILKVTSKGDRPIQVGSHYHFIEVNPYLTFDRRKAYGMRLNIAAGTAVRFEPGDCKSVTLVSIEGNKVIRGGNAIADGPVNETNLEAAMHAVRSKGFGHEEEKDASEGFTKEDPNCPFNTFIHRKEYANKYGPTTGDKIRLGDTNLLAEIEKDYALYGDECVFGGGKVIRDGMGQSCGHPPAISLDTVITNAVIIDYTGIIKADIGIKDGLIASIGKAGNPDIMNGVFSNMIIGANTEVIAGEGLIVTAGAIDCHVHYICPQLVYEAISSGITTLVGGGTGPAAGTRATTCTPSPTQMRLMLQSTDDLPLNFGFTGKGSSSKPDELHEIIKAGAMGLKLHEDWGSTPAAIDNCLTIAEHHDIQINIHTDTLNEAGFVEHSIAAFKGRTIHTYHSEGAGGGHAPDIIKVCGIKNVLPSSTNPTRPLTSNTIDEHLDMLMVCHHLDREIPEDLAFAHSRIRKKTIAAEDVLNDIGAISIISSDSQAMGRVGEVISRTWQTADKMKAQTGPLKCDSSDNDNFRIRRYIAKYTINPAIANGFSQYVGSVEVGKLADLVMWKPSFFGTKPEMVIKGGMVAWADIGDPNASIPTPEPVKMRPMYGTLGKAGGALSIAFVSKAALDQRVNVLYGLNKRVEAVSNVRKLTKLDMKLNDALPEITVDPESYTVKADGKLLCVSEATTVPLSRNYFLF

Compound | cell-free pH-based (phenol red) urease activity assay; delay of half-maximal abs (Jack bean urease [1]) [min] | cell-free pH-based (phenol red) urease activity assay; ΔT50 at 0.1 mM inhibitor (Jack bean urease [2]) [min]
CCCCCC#CC(=O)NO [2-octynoHA, 2-octynohydroxamic acid] | 47.9 ± 2.6 | –
CC(=O)NO [AHA, acetohydroxamic acid] | – | 2.8 ± 0.6
CCCCCCCC(=O)NO [OHA, octanohydroxamic acid] | – | 3.0 ± 1.6
